Source: patent US11202850B2, “Compositions and methods for inhibiting inflammation” (THE UNIVERSITY OF MEMPHIS RESEARCH FOUNDATION, priority 2018, dated 2021)

Assays:
[1] = test system: fresh human peripheral blood neutrophils; assay: NETosis on Cl-amidine eluting templates in vitro (DAPI/SYTOX Green BG ratio); assay type: cell-based
Experimental: 10 mm diameter punches of the templates (n=4) were placed in a 48-well culture plate and disinfected by UV irradiation. Isolated peripheral neutrophils from whole blood were suspended in sterile HBSS and used to seed templates with 600,000 cells in 250 μL of HBSS and cultured for 3 and 6 hours under standard conditions. Cellularized templates were then fixed in 10% buffered formalin and fluorescence quantification of NETs was carried out. Templates with 100 nM SYTOX Green for extracellular DNA followed by DAPI fixed cell nuclei stain at stock concentration (FIGS. 9A, 9B, 10A, 10B, and 11A). The ratio of DAPI (blue) to SYTOX green (BG ratio) pixels per image using MATLAB 2012a was quantified to determine degree of NETosis (FIGS. 12A and 12B).
Infrared scanning and quantification of citrullinated histone H3 (CitH3) was carried out as follows. Templates were incubated with rabbit anti-human histone H3 (citrulline R2+R8+R17) antibody (ABCAM) followed by IRDye 800CW donkey anti-rabbit secondary antibody. The templates were scanned on the 800-nm channel of the Odyssey CLx Infrared Imaging System (LICOR) to generate full-thickness template fluorescence. Template-bound CitH3 was quantified with standard curve of CitH3 vacuum blotted onto a PVDF membrane. Statistical analysis was carried out as follows. […] Then the plot of relative fluorescence against mass of CitH3 was fit with a linear regression. […]

PAD4 = target: T1, PAD4 (Homo sapiens, UniProt Q9UM07); assay: PAD4 Inhibitor Screening Assay: Cl-amidine activity after exposure to electrospinning solvent HFP; assay type: biochemical
T1 construct: purchased
From the text: The log transform of molarity against average fluorescent intensity was plotted for each concentration (FIG. 6).
As the concentration of drug increases, the relative fluorescence decreases, signifying an increase in the inhibition of PAD4. […] However, the drug was still active producing a sigmoidal curve similar to that of the HBSS samples.
In addition to determining the activity of Cl—Am, the samples exposed to HFP were used to create a standard curve for quantifying unknown Cl—Am concentrations. The four-parameter logistic regression of the HFP exposed samples (Equation 1, x=logarithmic transform of Cl—Am concentration and y=relative fluorescence) has an R2-value of 0.996, and there is no evidence of an inadequate model from the lack of fit test (p=0.28).
Lower fluorescence indicated greater inhibition of PAD4. No evidence of lack of fit (p=0.28) was found for the four-parameter regression of HFP exposed samples. […] This provided a standard curve for quantifying unknown Cl-amidine from elution studies.

T1 sequence (Q9UM07 whole entry, species assumed): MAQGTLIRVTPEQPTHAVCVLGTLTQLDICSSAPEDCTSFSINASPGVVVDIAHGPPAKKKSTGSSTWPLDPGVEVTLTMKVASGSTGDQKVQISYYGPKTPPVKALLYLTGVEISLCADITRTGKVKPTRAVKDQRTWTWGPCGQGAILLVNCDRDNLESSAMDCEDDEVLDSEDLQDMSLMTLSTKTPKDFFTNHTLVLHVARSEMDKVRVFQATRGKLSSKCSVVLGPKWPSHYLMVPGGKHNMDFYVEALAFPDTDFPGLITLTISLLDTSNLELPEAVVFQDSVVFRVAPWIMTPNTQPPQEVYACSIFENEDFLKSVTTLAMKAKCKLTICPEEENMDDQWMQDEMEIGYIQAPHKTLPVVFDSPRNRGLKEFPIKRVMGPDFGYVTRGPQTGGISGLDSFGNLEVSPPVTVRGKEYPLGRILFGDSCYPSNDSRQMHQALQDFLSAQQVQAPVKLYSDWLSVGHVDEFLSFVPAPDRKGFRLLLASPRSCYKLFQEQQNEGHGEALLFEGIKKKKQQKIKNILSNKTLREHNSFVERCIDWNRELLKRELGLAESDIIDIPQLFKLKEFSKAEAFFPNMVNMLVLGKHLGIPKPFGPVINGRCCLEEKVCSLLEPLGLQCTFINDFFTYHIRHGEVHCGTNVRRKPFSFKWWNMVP

- lowest concentration inhibiting PAD4 activity (PAD4; after exposure to HFP): 1.2 µM
- efficacy after exposure to solvent HFP (PAD4; sigmoidal curve similar to HBSS samples): retained efficacy after exposure to HFP
SMILES: N=C(CCl)NCCCC(NC(=O)c1ccccc1)C(N)=O [Cl-amidine, N-α-benzoyl-N5-(2-chloro-1-iminoethyl)-L-ornithine amide]
- effect of eluted Cl-amidine on NETosis ([1]; on large diameter templates, 3 hours): opposite trend
- effect of eluted Cl-amidine on NETosis ([1]; on small diameter templates, 3 hours (p<0.05)): significantly attenuated NETosis
- activity against PAD4 after exposure to HFP versus HBSS samples (PAD4; at two concentrations, 5.9 and 29.5 μM (p<0.0001)): significantly reduced its activity against PAD4
